Test results reported in patent US20240336615A1, “CYCLOPROPYL-(HETERO)ARYL-SUBSTITUTED ETHYL-SULFOXIME-PYRIDINE DERIVATIVES” (Boehringer Ingelheim Vetmedica GmbH, priority 2023, published 2024).

Experiments:
[1] = test system: adult C. felis fleas; assay: Ingestion activity against adult Ctenocephalides felis, membrane feeding, motility (Example 6); conditions: 48 h, bovine blood via artificial membrane, 48h post treatment, read-out: EC50 (ingestion activity, % motility reduction)
Procedure: Compounds of formulae (I), (Ia) and/or (Ib) dissolved in 100% DMSO are added to bovine blood and offered via an artificial membrane feeding system to adult C. felis fleas. The motility of fleas is then visually inspected 48h post treatment. Efficacy is expressed in % motility reduction compared to controls containing blood treated with DMSO only. A dose response series is implemented to determine EC50 values.

[2] = test system: adult C. felis fleas; assay: Ingestion activity against adult Ctenocephalides felis, membrane feeding, alternative method (Examples 7 and 13)
Procedure: Selected compounds of formula (I), (Ia) and (Ib) and compound “125” of WO 2021/033141 dissolved in 100% DMSO are diluted in bovine blood with sodium heparin anti-coagulant. The resulting formulation is offered via an artificial membrane feeding system to approximately 15 adult C. felis fleas previously dispensed into 24-well plates. The plates are then incubated in a double-chambered device. Visual evaluation for mortality is performed at 48 hours post-treatment. Compound efficacy at a given dose is expressed as percentage mortality and determined by normalization to positive and negative controls. A dose response series is implemented to determine EC50 values.
Compounds of formulae (I), (Ia) and/or (Ib) dissolved in 100% DMSO are diluted in bovine blood with sodium heparin anti-coagulant. The resulting formulation is offered via an artificial membrane feeding system to approximately 15 adult C. felis fleas previously dispensed into 24-well plates. The plates are then incubated in a double-chambered device. Visual evaluation for mortality is performed at 48 hours post-treatment. Compound efficacy at a given dose is expressed as percentage mortality and determined by normalization to positive and negative controls. A dose response series is implemented to determine EC50 values.

[3] = test system: Spodoptera litura; assay: Insecticidal test on Spodoptera litura (Example 14); format: in vivo; conditions: foliar, 192 h, 500 ppm, cabbage leaf dip, 2nd-instar larvae, 8 days after inoculation, read-out: activity level (corrected mortality rate)
Procedure: The compounds of formula (I), (Ia) and/or (Ib) of the present invention or salts thereof are separately dispersed in water and diluted to 500 ppm and 50 ppm. Cabbage leaves are dipped in the dispersion for about 30 seconds. After air dried, the leaves are placed in a plastic Petri dish with a diameter of 9 cm and inoculated with ten 2nd-instar larvae of Spodoptera litura, after which the dish is closed and then allowed to stand in a room at 25° C. 8 days after the inoculation, the numbers of the dead and alive insects are counted. The corrected mortality rate is calculated according to the following formula and the insecticidal activity is evaluated according to the following criteria.
[formula] [formula] • A: the corrected mortality rate is 100% • B: the corrected mortality rate is 90 to 99% • C: the corrected mortality rate is 80 to 89% • D: the corrected mortality rate is 50 to 79%

[4] = test system: Plutella xylostella; assay: Insecticidal test on Plutella xylostella (Example 15); format: in vivo; conditions: 144 h, Chinese cabbage seedling dip, 6 days after dip treatment, read-out: activity level (corrected mortality rate)
Procedure: The compounds of formula (I), (Ia) and/or (Ib) of the present invention or salts thereof are separately dispersed in water and diluted to 500 ppm and 50 ppm. Ten adults of Plutella xylostella are released onto Chinese cabbage seedlings and allowed to lay eggs thereon. 2 days after the release of the adults, the seedling is dipped in the dispersion for about 30 seconds. After air dried, the seedling is kept in a room at 25° C. 6 days after the dip treatment, the numbers of the dead and alive insects are counted. The corrected mortality rate is calculated according to the following formula and the insecticidal activity is evaluated according to the following criteria.

[5] = test system: Laodelphax striatellus; assay: Insecticidal test on Laodelphax striatellus (Example 16); format: in vivo; conditions: 192 h, rice seedling dip, 3rd-instar nymphs, 8 days after inoculation, read-out: activity level (corrected mortality rate)
Procedure: The compounds of formula (I), (Ia) and/or (Ib) of the present invention or salts thereof are separately dispersed in water and diluted to 500 ppm and 50 ppm. Rice plant seedlings are dipped in the dispersion for about 30 seconds. After air dried, the seedlings are put into a separate glass test tube and inoculated with ten 3rd-instar nymphs of Laodelphax striatellus and then the glass test tube is kept in a room at 25° C. 8 days after the inoculation, the numbers of the dead and alive insects are counted. The corrected mortality rate is calculated according to the following formula and the insecticidal activity is evaluated according to the following criteria.

[6] = test system: Myzus persicae; assay: Insecticidal test on Myzus persicae (Example 17); format: in vivo; conditions: 144 h, foliar application on Chinese cabbage, 6 days after application, read-out: control efficacy level (control rate)
From the text: The compounds of formula (I), (Ia) and/or (Ib) of the present invention or salts thereof are separately dispersed in water and diluted to 500 ppm and 50 ppm. Chinese cabbage plants are planted in plastic pots (diameter: 8 cm, height: 8 cm). Aphids (Myzus persicae) are propagated on the plants and then the number of surviving aphids is counted. The dispersion is applied to the foliage of the potted plants. After the plants are air dried, these are kept in a greenhouse. 6 days after the application, the number of the alive insects is counted on the plants. The control rate is calculated according to the following formula and the control efficacy is evaluated according to the following criteria. [formula] • Ta: the number of alive insects before the foliar application in a treated plot • T: the number of alive insects after the foliar application in a treated plot • Ca: the number of alive insects before the foliar application in an untreated plot • C: the number of alive insects after the foliar application in an untreated plot • A: the control rate is 100% • B: the control rate is 90 to 99% • C: the control rate is 80 to 89% • D: the control rate is 50 to 79%

[7] = test system: adult Ctenocephalides felis fleas; assay: Contact activity against adult Ctenocephalides felis (Example 4); conditions: adult C. felis, coated pipe cleaner in vial, 72 hours post-treatment, read-out: EC50 (contact activity, percentage mortality)
Procedure: Compounds of formulae (I), (Ia) and/or (Ib) dissolved in 100% DMSO are diluted in acetone to a desired concentration. The resulting formulation is used to coat the fibers of a 0.5-inch-long piece of pipe cleaner placed in a glass scintillation vial. The vial is capped with a rubber gasket and filter paper insert. After the acetone has evaporated, ten adult Ctenocephalides felis fleas are added to each vial. The vials are then incubated at 22° C., 80% relative humidity, and 12 hours of light/12 hours of dark until a visual evaluation for mortality is performed at 72 hours post-treatment. Compound efficacy at a given dose is expressed as percentage mortality and adjusted to remove background mortality observed in control vials containing DMSO only. A dose response series of treated vials is implemented to determine EC50 values.

[8] = Ctenocephalides felis, adult C. felis, bovine blood with sodium heparin, membrane feeding, 48 hours post-treatment, read-out: EC50 (ingestion activity, percentage mortality, alternative method)
[9] = alternative method according to Example 7, mortality at 48 hours post-treatment, read-out: C. felis membrane feeding (ingestion/blood feeding) activity EC50

Q: `CCS(=N)(=O)c1cc(-c2ccc(C3(C#N)CC3)cc2)cnc1-c1nc2cc(C(C)(F)F)cnc2n1C` (stereo not shown) [Compound 2] was tested. Which EC50 [1] did it give?
A: Its EC50 is 1 to 10 µM.

Q: And the EC50 [2, 8]?
A: Its EC50 is 1 to 10 µM.

Q: What about the mortality at 500 ppm [3] of the same molecule?
A: Its mortality at 500 ppm is 100%.

Q: What about the mortality at 500 ppm [4] of the same molecule?
A: Its mortality at 500 ppm is 100%.

Q: And the mortality at 500 ppm [5]?
A: Its mortality at 500 ppm is 100%.

Q: What about the pest or weed control at 500 ppm [6] of the same molecule?
A: Its pest or weed control at 500 ppm is 100%.

Q: With `CCS(=N)(=O)c1cc(-c2noc(C3(C(F)(F)F)CC3)n2)cnc1-c1nc2cc(C(F)(F)C3CC3)nnc2n1C` (stereo not shown) [Compound 4] as the molecule, how does the EC50 [7] read?
A: The EC50 was 10 to 100 µM.

Q: What about the EC50 [1] of the same molecule?
A: The EC50 was under 1 µM.

Q: And the EC50 [2, 8]?
A: Its EC50 is under 1 µM.

Q: What about the EC50 ([2]; Ctenocephalides felis, alternative method according to Example 7, mortality at 48 hours post-treatment, read-out: C. felis membrane feeding (ingestion/blood feeding) activity EC50) of the same molecule?
A: Its EC50 is 0.474 µM.

Q: How did the EC50 [2, 9] turn out when `CC[S@](=N)(=O)c1cc(-c2noc(C3CC3)n2)cnc1-c1nc2cc(C(F)(F)C(F)(F)F)cnc2n1C` [Compound 7a, (S)-[5-(5-cyclopropyl-1,2,4-oxadiazol-3-yl)-2-[3-methyl-6-(1,1,2,2,2-pentafluoroethyl)-3H-imidazo[4,5-b]pyridin-2-yl]pyridin-3-yl](ethyl)imino-lambda6-sulfanone] was run?
A: Its EC50 is 0.385 µM.

Q: How did the EC50 [2, 9] turn out when `CC[S@@](=N)(=O)c1cc(-c2noc(C3CC3)n2)cnc1-c1nc2cc(C(F)(F)C(F)(F)F)cnc2n1C` [Compound 7b, (R)-[5-(5-cyclopropyl-1,2,4-oxadiazol-3-yl)-2-[3-methyl-6-(1,1,2,2,2-pentafluoroethyl)-3H-imidazo[4,5-b]pyridin-2-yl]pyridin-3-yl](ethyl)imino-lambda6-sulfanone] was run?
A: The EC50 was 1.35 µM.

Q: `CC[SH](=N)(O)c1cc(-c2noc(C3CC3)n2)cnc1-c1nc2cc(C(F)(F)C(F)(F)F)nnc2n1C` [Compound 8a] was tested. Which EC50 [2, 9] did it give?
A: Its EC50 is 0.482 µM.

Q: What does the source list for `CCS(=N)(=O)c1cc(-c2noc(C3CC3)n2)cnc1-c1nc2cc(C(C)(F)F)cnc2n1C` (stereo not shown) [Compound 10]?
A: mortality at 500 ppm [4]: 100%; mortality at 500 ppm [5]: 100%; pest or weed control at 500 ppm [6]: 100%

Q: How did the mortality at 50 ppm [4] turn out when `CCS(=N)(=O)c1cc(-c2noc(C3CC3)n2)cnc1-c1nc2cc(C(F)(F)C3CC3)cnc2n1C` (stereo not shown) [Compound 12] was run?
A: The mortality at 50 ppm was 100%.

Q: And the pest or weed control at 500 ppm [6]?
A: The pest or weed control at 500 ppm was 100%.

Q: Which results are given for `CCS(=N)(=O)c1cc(-c2noc(C3CC3)n2)cnc1-c1nc2cc(C(C)(F)F)nnc2n1C` (stereo not shown) [Compound 13]?
A: EC50 [1]: < 1 µM; EC50 [2, 8]: 1 to 10 µM; mortality at 50 ppm [4]: 100%; mortality at 50 ppm ([5]; 50 ppm): 100%; pest or weed control at 50 ppm ([6]; 50 ppm): 100%

Q: With `CCS(=N)(=O)c1cc(-c2noc(C3CC3)n2)cnc1-c1nc2cc(C(F)(F)C3CC3)nnc2n1C` (stereo not shown) [Compound 15] as the molecule, how does the EC50 [2, 8] read?
A: Its EC50 is 1 to 10 µM.

Q: And the mortality at 500 ppm [4]?
A: The mortality at 500 ppm was 100%.

Q: What about the mortality at 500 ppm [5] of the same molecule?
A: Its mortality at 500 ppm is 100%.

Q: And the pest or weed control at 500 ppm [6]?
A: The pest or weed control at 500 ppm was 100%.

Q: With `CCS(=N)(=O)c1cc(-c2ccc(C3(C#N)CC3)cc2)cnc1-c1nc2cc(C(C)(F)F)cn(CC(F)F)c-2c1F` (stereo not shown) [Compound 16] as the molecule, how does the EC50 [2, 8] read?
A: The EC50 was 1 to 10 µM.
